US20060148714A1, “Therapeutic peptide-based constructs” (priority 1999, published 2006)
Values after ≈ are worked out from the molar mass of the structure shown. Marks after values point to notes of the source that are not given here. Where a SMILES comes first, the peptide text is derived from it. Where no end group is shown, it is not given here. [ ]: non-standard residue; d: D form. The star is where a group is joined. Benzoyl(4-Ph) = O=C(c1ccc(-c2ccccc2)cc1)*; Benzoyl(2-Ph) = O=C(c1ccccc1-c1ccccc1)*; d1Nal = N[C@H](Cc1cccc2ccccc12)C(=O)O; Aib = CC(C)(N)C(=O)O

Tests used:
[1] = test system: Factor Xa neutralization by ATIII/heparin complexes; experiment: Chromostrate heparin anti-Factor Xa assay (heparin neutralization); assay type: biochemical; conditions: absorbance at 405 nm
Procedure: A Chromostrate™ assay was used to determine the effect of peptide-based constructs, including derivatized constructs, and the effect protamine sulfate (as a positive control) on Factor Xa neutralization by ATIII/heparin complexes. The assay was conducted using a Chromostrate™ heparin anti-Factor Xa assay kit (Organon Teknika Corp., Durham, N.C.). Heparin concentration was varied so that a heparin standard curve was generated. The assay measured the potentiating effect of heparin on anti-Xa activity in vitro. Solution containing heparin is incubated in the presence of ATIII with an excess of Factor Xa, forming an ATIII-Heparin-Xa complex. The remaining Xa catalyzes the release of p-nitroaniline (pNA) from the chromogenic substrate. The release of p-nitroaniline is measured at 405 nm. The absorbance obtained in inversely porportional to the concentration of heparin in the sample.
Reagents for the assay are prepared as follows. Heparin, peptide-based constructs and protamine sulfate stocks are made in saline. Stock solutions are approximately 1 mg/mL=1 μg/μL. Factor Xa reagent and substrate reagent are reconstituted with 2.0 mL purified water. Antithrombin III (ATIII) reagent is reconstituted with 1.0 mL purified water. The assay is performed in 96 well microtiter plates. Assay components are added to the microtiter wells as follows: 12.5 μl of heparin (from 0 to 10 U/mL), 25 μl of construct or protamine sulfate, 12.5 μL of ATIII (0.5 PEU/mL), 25 μL of bovine Factor Xa (14 nKat/mL), 25 μL substrate (3 μmoles/mL). The reaction is allowed to proceed for 20 minutes and then 25 μL of 0.1 M acetic acid is added. The color reaction is quantitated on a microplate reader at 405 nm. Constructs that neutralize heparin show an increase in the absorbance at 405 nm. Protamine is used as a positive control and its activity is designated as 100%. The percent (%) heparin neutralization for each peptide construct is calculated relative to the neutralization by protamine (100%), and shown in Table IV.

[2] = test system: E. coli (J5 and 0111 B4), Staphylococcus aureus and Candida albicans; experiment: Broth and/or radial diffusion antimicrobial assays; assay type: cell-based
From the text: Assays useful for testing a variety of biological activities of BPI protein products, including BPI-derived peptides, are described in co-owned U.S. Pat. Nos. 5,733,872; 5,763,567; 5,652,332; and 5,856,438 and corresponding PCT Publication Nos. WO 94/20532 (PCT/US94/02465) and WO 95/19372 (PCT/US94/10427) and U.S. Pat. No. 5,858,974 and corresponding PCT Publications Nos. WO 96/08509 (PCT/US95/09262) and WO 97/04008 (PCT/US96/03845), incorporated herein by reference. These activities include antimicrobial (including antibacterial and antifungal), LPS binding, LPS neutralization and additional assays of heparin binding as well as heparin neutralization.

LPS = experiment: RAW cell assay of LPS neutralization; assay type: cell-based
[3] = test system: human umbilical vein endothelial cells (HUVEC); assay type: cell-based; conditions: 72 h
Procedure: Briefly, human umbilical vein endothelial cells (HUVEC) were cultured in EGM-2 medium (Clonetics Corp., San Diego, Calif.), harvested and plated onto a 96-well culture plate. After 24 hours of quiescence, the cells were co-cultured with various peptide-based constricts in the presence of growth factors for 72 hours to test their activity. Cell proliferation was quantitated by tritiated thymidine incorporation into DNA and was expressed in counts per minute (cpm).
Details of the experimental procedures were as follows: HUVEC cells were cultured in EGM-2 media from Clonetics Corp., a subsidiary of BioWhittaker, Inc., San Diego, Calif. [EGM-2 is Endothelial Cell Basal Medium-2 (EMB-2) supplemented with growth factors (hFGF-B, VEGF, IGF-1, hEGF) ascorbic acid, heparin, GA-1000 and 2% FBS), in T75 flasks until confluent (˜4-7 days). Cells were harvested by trypsinizing the cells using 0.025% trypsin/EDTA for 5 minutes. To stop the reaction, 2-5% FBS was added. The cells were centrifuged and washed 3 times using Hank's Balanced Salt Solution (HBSS) or Dulbecco's Phosphate Buffered Saline D-PBS. The pellet was then resuspended in EBM-2 supplemented with 0.1% FBS and GA-1000 was used. The cells were counted and a cell suspension was prepared at 2×10^5/mL in EBM-2 with 0.1% FBS; cells were dispensed into a 96-well flat bottomed culture plate at 0.1 mL/well (total: ˜20,000 cells/well in 0.1% FBS-EBM-2). Incubation continued at 37° C. in 5% CO2 for 20-24 hours. The next day peptide-based constructs were prepared for testing in a 96 well plate. The supernatant was aspirated from the cell-well, replaced with EBM-2 or the testing reagent at 20 μL/well. Then, 180 μL/well of 1.12% FBS-GFS were added to make a final concentration of 1% FBS-GFS in EBM-2. This aspiration and addition was done well-by-well. ^3H-thymidine (100 μCi/mL) was added at 10 μL/well (1 μCi/well, final). Incubation continued at 37° C., 5% CO2 for 72 hours. To harvest the plate, the supernatant was aspirated off from the cell-well and then 75 μL-100 μL/well of 0.025% trypsin-EDTA was added. After incubation for 8-10 minutes at room temperature in the hood, the cells were checked and 100 μL/well of 2-5% FBS-PBS was added to stop the reaction. The plate was then harvested, dried and counted using an Inotech cell harvester (Inotech Biosystems, INB-384, Sample Processing and Filter Counting System, Lansing, Mich.).

Compound	Assay A: percent heparin neutralization relative to protamine (100%) [1]	Assay B: percent heparin neutralization relative to protamine (100%) [1] [%]	antimicrobial activity [2]	LPS neutralization activity (LPS)	IC50 [3] [µg/mL]
1-naphthylacetyl-k-l-f-r-(naph-a)-q-a-k ({1‑naphthylacetyl}-[dK][dL][dF][dR][dNal][dQ][dA][dK]; not fully specified; printed as 1-naphthylacetyl-k-l-f-r-(naph-a)-q-a-k) [XMP.671]	32%	15			
4-biphenylcarbonyl-k-l-f-k-(biphenyl-a)-q-a-k [XMP.769]	64%	46			
4-biphenylcarbonyl-k-l-f-k-(naph-a)-q-a-k ({Benzoyl(4-Ph)}-[dK][dL][dF][dK][dNal][dQ][dA][dK]; not fully specified; printed as 4-biphenylcarbonyl-k-l-f-k-(naph-a)-q-a-k) [XMP.767]	63%*	58	highest activities		
4-biphenylcarbonyl-k-l-f-r-(biphenyl-a)-q-a-k [XMP.768]	34%	10			
4-biphenylcarbonyl-k-l-f-r-(naph-a)-q-a-k ({Benzoyl(4-Ph)}-[dK][dL][dF][dR][dNal][dQ][dA][dK]; not fully specified; printed as 4-biphenylcarbonyl-k-l-f-r-(naph-a)-q-a-k) [XMP.664]	50%	16	highest activities		
CC[C@@H](C)[C@@H](NC(=O)[C@@H](CO)NC(=O)CNC(=O)[C@@H](CCCCN)NC(=O)[C@@H](Cc1cccc2ccccc12)NC(=O)[C@@H](CCCCN)NC(=O)[C@@H](C)NC(=O)[C@@H](CCC(N)=O)NC(=O)[C@@H](Cc1cccc2ccccc12)NC(=O)[C@@H](CCCNC(=N)N)NC(=O)[C@@H](Cc1ccccc1)NC(=O)[C@@H](CC(C)C)NC(=O)[C@H](N)CCCCN)C(N)=O [XMP.625, k-l-f-r-(naph-a)-q-a-k-(naph-a)-k-g-s-i] (H-[dK][dL][dF][dR][d1Nal][dQ][dA][dK][d1Nal][dK]G[dS][dI]-NH2)	79%	125		showed activity	
CC[C@@H](C)[C@@H](NC(=O)[C@@H](CCCCN)NC(=O)[C@H](NC(=O)CNC(=O)[C@@H](CCCCN)NC(=O)[C@@H](Cc1cccc2ccccc12)NC(=O)[C@@H](CCCCN)NC(=O)[C@@H](C)NC(=O)[C@@H](CCC(N)=O)NC(=O)[C@@H](Cc1cccc2ccccc12)NC(=O)[C@@H](CCCNC(=N)N)NC(=O)[C@@H](Cc1ccccc1)NC(=O)[C@@H](CC(C)C)NC(=O)[C@H](N)CCCCN)[C@H](C)CC)C(N)=O [XMP.656, k-l-f-r-(naph-a)-q-a-k-(naph-a)-k-g-i-k-i] (H-[dK][dL][dF][dR][d1Nal][dQ][dA][dK][d1Nal][dK]G[dI][dK][dI]-NH2; N-terminus assumed)	74%	65	highest antimicrobial activities		2.6 ± 0.8 (≈ 1.43 µM)
CC(C)C[C@@H](NC(=O)[C@@H](CCCCN)NC(=O)c1ccccc1-c1ccccc1)C(=O)N[C@H](Cc1ccccc1)C(=O)N[C@H](CCCNC(=N)N)C(=O)N[C@H](Cc1cccc2ccccc12)C(=O)N[C@H](CCC(N)=O)C(=O)N[C@H](C)C(=O)N[C@H](CCCCN)C(N)=O [XMP.661, 2-biphenylcarbonyl-k-l-f-r-(naph-a)-q-a-k] ({Benzoyl(2-Ph)}-[dK][dL][dF][dR][d1Nal][dQ][dA][dK]-NH2)	30%	9			
k-(aminoisobutyric acid)-f-r-(naph-a)-q-a-k-(naph-a) ([dK][Aib][dF][dR]A[dQ][dA][dK]A; not fully specified (residues 5, 9)) [XMP.778]	54%	49	highest antimicrobial activities		
k-a-f-k-(naph-a)-q-a-k-(naph-a)-k-G ([dK][dA][dF][dK][dNal][dQ][dA][dK][dNal][dK]G; not fully specified; printed as k-a-f-k-(naph-a)-q-a-k-(naph-a)-k-G) [XMP.764]	75%	60	highest antimicrobial activities		
k-a-f-r-(naph-a)-q-a-k-(naph-a) ([dK][dA][dF][dR][dNal][dQ][dA][dK][dNal]; not fully specified; printed as k-a-f-r-(naph-a)-q-a-k-(naph-a)) [XMP.760]	53%	44	highest antimicrobial activities		
k-l-f-k-(biphenyl-a)-q-a-k-(biphenyl-a)-k-G [XMP.728]	106%	87			
k-l-f-k-(naph-a)-q-a-k-(naph-a) ([dK][dL][dF][dK][dNal][dQ][dA][dK][dNal]; not fully specified; printed as k-l-f-k-(naph-a)-q-a-k-(naph-a)) [XMP.776]	74%	75	highest antimicrobial activities		
k-l-f-r-(biphenyl-A)-q-a-k [XMP.685]	3.4%	0.2			
k-l-f-r-(biphenyl-a)-q-a-k [XMP.725]	3.8%	1.0			
